Laboratory results reported in article PMC3591457, “Biodistribution and Elimination Study of Fluorine-18 Labeled N^ε-Carboxymethyl-Lysine following Intragastric and Intravenous Administration” (PLoS ONE, 2013).

Key:
RAW264.7 cells = assay: Cell uptake of ^18F-CML and native CML in RAW264.7 cells; assay type: cell-based; conditions: incubation 2 hours
Method: (§1) To compare the different bioactivities of CML and ^18F-CML, two cell lines were evaluated for their capacity to take up native CML and the fluorobenzoylated derivative ^18F-CML. RAW264.7 macrophages and HepG2 liver cells were cultured in DMEM/LOWGLUCOSE, supplemented with 10% fetal bovine serum (FBS), 4.0 mmol/L L-glutamine, 110 mg/L sodium pyruvate, 100 U/mL penicillin, and 100 mg/L streptomycin at 37°C and 5% CO2.
(§2) For ^18F-CML cell uptake studies, RAW264.7 cells and HepG2 cells were seeded into 24-well plates at a density of 4×10^5 cells per well. Radio-tracer ^18F-CML (0.5 µCi/well, 3 µmol/mL) was incubated in a 37°C water bath for 15, 30, 60, and 120 min. At each time point the cells were washed 3 times with phosphate-buffered saline (PBS). The supernatant, washing-up liquid (unbound activity) and the pellet (cell-bound activity) were transferred to new tubes. Triplicates of the counting tubes containing supernatant and cell pellet were counted individually using a gamma counter for 1 min. For the blocking experiment, the uptake was carried out in the presence of the non-radioactive CML(10 µmol/mL) and processed similarly as described above. The uptake (%) of radio-tracer into the cell was determined using a gamma counter according to the following equation: [drawing 1]
(§3) For CML cell uptake ratio studies, unaltered CML (10 µmol/mL) was added to RAW264.7 and HepG2 cell pellets individually. The total proteins of each cell line were initially extracted from the lysates of 4×10^5 cells. […] The supernatants were purified and detected usingby the method described by Drusch et al., which uses an RP-HPLC method with an ortho-phthaldialdehyde (OPA)-derivatisation and fluorescence detection suited for automation. The HPLC analysis method used a 250 mm×4.6 mm C18 column (GROM-SIL 100 ODS-0 AB, Herrenberg, Germany) and detected the fluorescence excitation at 340 nm and emission at 455 nm. The peak identification of CML was confirmed by the retention time and standard addition and was quantified using an external standard. The amount of CML was calculated and expressed as a percentage.

HepG2 cells = assay: Cell uptake of ^18F-CML and native CML in HepG2 cells; assay type: cell-based; conditions: incubation 2 hours
Method: as §1, §2, §3

## NC(CCCCNCC(=O)O)C(=O)O (stereo not shown) [CML, N^ε-carboxymethyl-lysine]
RAW264.7 cells; P<0.01
  Uptake ratio of unaltered CML, amount less than ^18F-CML: 0.3%
RAW264.7 cells; n=3
  Uptake of unaltered CML: 8.2 µg/mg of cell protein
HepG2 cells; P<0.01
  Uptake ratio of unaltered CML, amount less than ^18F-CML: 0.2%
HepG2 cells; n=3
  Uptake of unaltered CML: 6.3 µg/mg of cell protein
